Consider 6 compounds from ChEMBL document CHEMBL2203035, “Synthesis and docking studies of novel antitumor benzimidazoles” (Bioorg Med Chem, 2012).

The target of the first test is Urokinase plasminogen activator surface receptor (Homo sapiens, UniProt Q03405). Briefly: Binding affinity to uPAR.
Sequence of Urokinase plasminogen activator surface receptor (Q03405 whole entry): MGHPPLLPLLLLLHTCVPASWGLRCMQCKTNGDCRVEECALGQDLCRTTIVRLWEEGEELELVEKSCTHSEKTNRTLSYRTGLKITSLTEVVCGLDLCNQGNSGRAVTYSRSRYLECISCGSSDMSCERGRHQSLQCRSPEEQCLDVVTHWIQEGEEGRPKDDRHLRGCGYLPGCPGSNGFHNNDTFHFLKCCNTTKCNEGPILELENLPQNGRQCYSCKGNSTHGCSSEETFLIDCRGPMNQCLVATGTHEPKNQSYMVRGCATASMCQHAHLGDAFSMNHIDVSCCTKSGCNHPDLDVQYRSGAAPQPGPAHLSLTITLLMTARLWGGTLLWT
Settings: not given
What is called Ki is the dissociation constant of the complex between target and ligand, obtained from inhibition or displacement. Consider `N#Cc1cc(-c2ccccc2)n(-c2nc3ccccc3[nH]2)c1N`, for which the Ki was 0.00302 nM.
For `Nc1c(-c2nc3ccccc3[nH]2)cc(-c2ccccc2)n1Cc1nc2ccccc2[nH]1`, the Ki was 0.00217 nM.
Turning to `O=C1NC2=Nc3ccccc3NC2=Nc2ccccc21`, the Ki worked out at 1.33 nM.
On to `Nc1c(-c2nc3ccccc3[nH]2)cc(-c2ccccc2)n1-c1ccncc1`, for which the Ki was 0.001 nM.
As for `N#Cc1cc(-c2ccccc2)n(-c2ccc(Br)cc2)c1N`, the Ki was determined as 0.00327 nM.
In turn, `Nc1c(-c2nc3ccccc3[nH]2)cc(-c2ccccc2)n1-c1nc2ccccc2[nH]1` returned a Ki of 0.00153 nM.

In another test the test system is Raji. Briefly: Inhibition of tumor promotion in human Raji cells assessed as TPA-induced Epstein-Barr virus early antigen activation at 10 mol ratio/TPA after 48 hrs by indirect immunofluorescence analysis relative to TPA alone.
Settings: not given
Further details: scale not given: the % may be the effect or the level left. It is filed as functional.
As to `N#Cc1cc(-c2ccccc2)n(-c2nc3ccccc3[nH]2)c1N`, the Activity is recorded as 100%.
Take `Nc1c(-c2nc3ccccc3[nH]2)cc(-c2ccccc2)n1Cc1nc2ccccc2[nH]1`: the Activity is given as 100%.
On to `O=C1NC2=Nc3ccccc3NC2=Nc2ccccc21`, for which the Activity is given as 100%.
Regarding `Nc1c(-c2nc3ccccc3[nH]2)cc(-c2ccccc2)n1-c1ccncc1`, the Activity was determined as 100%.
For `Nc1c(-c2nc3ccccc3[nH]2)cc(-c2ccccc2)n1-c1nc2ccccc2[nH]1`, the Activity is reported as 100%.

The next test deals with Raji. Briefly: Inhibition of tumor promotion in human Raji cells assessed as TPA-induced Epstein-Barr virus early antigen activation at 100 mol ratio/TPA after 48 hrs by indirect immunofluorescence analysis relative to TPA alone. In kind it is functional. Set-up: scale not given: the % may be the effect or the level left.
Settings: not given
Consider `N#Cc1cc(-c2ccccc2)n(-c2nc3ccccc3[nH]2)c1N`, for which the Activity turned out to be 83.5%.
For the compound `Nc1c(-c2nc3ccccc3[nH]2)cc(-c2ccccc2)n1Cc1nc2ccccc2[nH]1`, the Activity is recorded as 82.6%.
On to `O=C1NC2=Nc3ccccc3NC2=Nc2ccccc21`, for which the Activity turned out to be 86.3%.
On to `Nc1c(-c2nc3ccccc3[nH]2)cc(-c2ccccc2)n1-c1ccncc1`, for which the Activity is reported as 78.6%.
For `Nc1c(-c2nc3ccccc3[nH]2)cc(-c2ccccc2)n1-c1nc2ccccc2[nH]1`, the Activity amounted to 80%.

The next test relates to Raji. The experiment in a line: Inhibition of tumor promotion in human Raji cells assessed as TPA-induced Epstein-Barr virus early antigen activation at 500 mol ratio/TPA after 48 hrs by indirect immunofluorescence analysis relative to TPA alone.
Settings: not given
Set-up: scale not given: the % may be the effect or the level left. In kind it is functional.
With `N#Cc1cc(-c2ccccc2)n(-c2nc3ccccc3[nH]2)c1N`, the Activity is on record as 49.6%.
With `Nc1c(-c2nc3ccccc3[nH]2)cc(-c2ccccc2)n1Cc1nc2ccccc2[nH]1`, the Activity came to 48.3%.
For `O=C1NC2=Nc3ccccc3NC2=Nc2ccccc21`, the Activity worked out at 54.6%.
Still for that read-out and setting: then `Nc1c(-c2nc3ccccc3[nH]2)cc(-c2ccccc2)n1-c1ccncc1`, with 46.9%.
Turning to `Nc1c(-c2nc3ccccc3[nH]2)cc(-c2ccccc2)n1-c1nc2ccccc2[nH]1`, the Activity is 48.2%.

A further test deals with Raji. The experiment in a line: Inhibition of tumor promotion in human Raji cells assessed as TPA-induced Epstein-Barr virus early antigen activation at 1000 mol ratio/TPA after 48 hrs by indirect immunofluorescence analysis relative to TPA alone. In kind it is functional. Set-up: scale not given: the % may be the effect or the level left.
Settings: not given
Turning to `N#Cc1cc(-c2ccccc2)n(-c2nc3ccccc3[nH]2)c1N`, the Activity was 19.7%.
Consider `Nc1c(-c2nc3ccccc3[nH]2)cc(-c2ccccc2)n1Cc1nc2ccccc2[nH]1`, for which the Activity stood at 18.7%.
`O=C1NC2=Nc3ccccc3NC2=Nc2ccccc21`: the Activity came to 22.6%.
Regarding `Nc1c(-c2nc3ccccc3[nH]2)cc(-c2ccccc2)n1-c1ccncc1`, the Activity is reported as 15.3%.
`Nc1c(-c2nc3ccccc3[nH]2)cc(-c2ccccc2)n1-c1nc2ccccc2[nH]1`: the Activity was found to be 16.3%.

The next test relates to A549. Briefly: Cytotoxicity against human A549 cells after 72 hrs by alamar blue assay. It is filed as functional, cell-based. As to conditions: A549, 72 h. For orientation: Resazurin is reduced to fluorescent resorufin, in cell work by metabolically active cells.
Regarding `N#Cc1cc(-c2ccccc2)n(-c2nc3ccccc3[nH]2)c1N`, the IC50 is 12100 nM.
On the same count and under the same terms, the result for `Nc1c(-c2nc3ccccc3[nH]2)cc(-c2ccccc2)n1Cc1nc2ccccc2[nH]1` reads 5100 nM.
`O=C1NC2=Nc3ccccc3NC2=Nc2ccccc21` displayed an IC50 of 13200 nM.
For the compound `Nc1c(-c2nc3ccccc3[nH]2)cc(-c2ccccc2)n1-c1ccncc1`, the IC50 is 1100 nM.
Compound `N#Cc1cc(-c2ccccc2)n(-c2ccc(Br)cc2)c1N` returned an IC50 of 4600 nM.
`Nc1c(-c2nc3ccccc3[nH]2)cc(-c2ccccc2)n1-c1nc2ccccc2[nH]1`: the IC50 came out at 7700 nM.

For a further test, the system named is A549. The experiment in a line: Downregulation of uPA protein expression in human A549 cell extract at 1.10 uM after 48 hrs by ELISA.
Settings: not given
It is filed as functional. For orientation: An ELISA detects its analyte on a solid surface through an enzyme-linked reagent.
The compound `Nc1c(-c2nc3ccccc3[nH]2)cc(-c2ccccc2)n1-c1ccncc1` registered an Activity of 75%.

In a further test the test system is A549. Briefly: Downregulation of uPA protein expression in human A549 cell extract at 0.55 uM after 48 hrs by ELISA. It is filed as functional.
Settings: not given
In turn, `Nc1c(-c2nc3ccccc3[nH]2)cc(-c2ccccc2)n1-c1ccncc1` returned an Activity of 56%.

Another test deals with A549. The experiment in a line: Downregulation of uPA protein expression in human A549 cell extract at 0.275 uM after 48 hrs by ELISA. It is filed as functional.
Settings: not given
Compound `Nc1c(-c2nc3ccccc3[nH]2)cc(-c2ccccc2)n1-c1ccncc1` had an Activity of 53%.

A further test relates to A549. The experiment in a line: Downregulation of uPA protein expression in human A549 cell extract at 0.137 uM after 48 hrs by ELISA.
Settings: not given
It is filed as functional.
`Nc1c(-c2nc3ccccc3[nH]2)cc(-c2ccccc2)n1-c1ccncc1` returned an Activity of 44%.

The next test concerns MCF7. The experiment in a line: Downregulation of uPA protein expression in human MCF7 cell extract at 0.35 uM after 48 hrs by ELISA (reference value: 1 1.4000 +/- 1.40 ng/ml). It is filed as functional.
Settings: not given
`Nc1c(-c2nc3ccccc3[nH]2)cc(-c2ccccc2)n1-c1ccncc1` displayed an Activity of 9 ng/mL.

A further test relates to MCF7. Briefly: Downregulation of uPA protein expression in human MCF7 cell extract at 0.175 uM after 48 hrs by ELISA (reference value: 1 1.4000 +/- 1.40 ng/ml).
Settings: not given
In kind it is functional.
Take `Nc1c(-c2nc3ccccc3[nH]2)cc(-c2ccccc2)n1-c1ccncc1`: the Activity is 8.7 ng/mL.

In the next test the test system is MCF7. The experiment in a line: Downregulation of uPA protein expression in human MCF7 cell extract at 0.087 uM after 48 hrs by ELISA (reference value: 1 1.4000 +/- 1.40 ng/ml). In kind it is functional.
Settings: not given
For `Nc1c(-c2nc3ccccc3[nH]2)cc(-c2ccccc2)n1-c1ccncc1`, the Activity worked out at 9.8 ng/mL.

In the next test the test system is A549. The experiment in a line: Downregulation of uPA protein expression in human A549 cell extract at 1.10 uM after 48 hrs by ELISA (reference value: 11.0000 +/-1.60 ng/ml). It is filed as functional.
Settings: not given
Take `Nc1c(-c2nc3ccccc3[nH]2)cc(-c2ccccc2)n1-c1ccncc1`: the Activity amounted to 2.7 ng/mL.

Another test concerns A549. Briefly: Downregulation of uPA protein expression in human A549 cell extract at 0.55 uM after 48 hrs by ELISA (reference value: 11.0000 +/-1.60 ng/ml). It is filed as functional.
Settings: not given
As to `Nc1c(-c2nc3ccccc3[nH]2)cc(-c2ccccc2)n1-c1ccncc1`, the Activity was 4.8 ng/mL.

In a further test the test system is A549. The experiment in a line: Downregulation of uPA protein expression in human A549 cell extract at 0.275 uM after 48 hrs by ELISA (reference value: 11.0000 +/-1.60 ng/ml). In kind it is functional.
Settings: not given
Regarding `Nc1c(-c2nc3ccccc3[nH]2)cc(-c2ccccc2)n1-c1ccncc1`, the Activity came out at 5.2 ng/mL.

Another test has as its system A549. Briefly: Downregulation of uPA protein expression in human A549 cell extract at 0.137 uM after 48 hrs by ELISA (reference value: 11.0000 +/-1.60 ng/ml). It is filed as functional.
Settings: not given
Regarding `Nc1c(-c2nc3ccccc3[nH]2)cc(-c2ccccc2)n1-c1ccncc1`, the Activity amounted to 6.2 ng/mL.

The next test deals with MCF7. Briefly: cells. As to conditions: Homo sapiens, MCF7, 48 h.
Description: Cytotoxicity against human MCF7 cells after 48 hrs by sulforhodamine B assay
`N#Cc1cc(-c2ccccc2)n(-c2nc3ccccc3[nH]2)c1N` gave an IC50 of 1.28 µg/well.
`Nc1c(-c2nc3ccccc3[nH]2)cc(-c2ccccc2)n1Cc1nc2ccccc2[nH]1` yielded an IC50 of 0.972 µg/well.
`O=C1NC2=Nc3ccccc3NC2=Nc2ccccc21` registered an IC50 of 1.39 µg/well.
On the same count and under the same terms, then `Nc1c(-c2nc3ccccc3[nH]2)cc(-c2ccccc2)n1-c1ccncc1`, with 0.705 µg/well; and `Nc1c(-c2nc3ccccc3[nH]2)cc(-c2ccccc2)n1-c1nc2ccccc2[nH]1`, with 1.62 µg/well.

In another test the test system is MCF7. The experiment in a line: Downregulation of uPA protein expression in human MCF7 cell extract at 0.70 ug/well after 48 hrs by ELISA (reference value: 1 1.4000 +/- 1.40 ng/ml).
Settings: not given
In the case of `Nc1c(-c2nc3ccccc3[nH]2)cc(-c2ccccc2)n1-c1ccncc1`, the Activity was 9.4 ng/mL.
